Experimental data from patent US20240293537A1, “A[…]-GRAFTED LAURYL GAMMA-POL[…] USE THEREOF” (JIANGSU ACADEMY OF AGRICULTURAL SCIENCES, priority 2021, published 2024).

Tests used:
RAW 264.7 cells = test system: RAW 264.7 cells
Description: After incubation for 24 h, the cells were pipetted, washed three times with PBS, centrifuged and finally resuspended in ice PBS before assay with flow cytometer (BD FACSCalibur flow cytometer).

Female Balb/c mice = details: as adjuvant with OVA, 200 μL/mouse, serum 28 days after inoculation
Description: In addition, 500 μg/mL of an OVA solution (abbreviated as OVA) was prepared by taking a PBS buffer with a pH of 7.4 as a solvent; 100 μg/mL of an FIP solution (abbreviated as FIP) was prepared by taking a PBS buffer with a pH of 7.4 as a solvent.
After inoculation, the skin condition of the injection site was observed over one week. Blood was collected from the orbit 28 days after inoculation, and sera were separated and the antibody titer was measured.
The antibody titer was measured by adopting the following method: 10 μg/mL of an OVA protein solution was prepared by taking 0.05 mol/L of a Na2CO3—NaHCO3 buffer with a pH of 9.6 as a solvent. […]

Row | Molecule | fluorescence of cells (uptake) (RAW 264.7 cells; RAW 264.7, 24 h, FIP 50 μg/mL) | fluorescence intensity of the cells with increase of FIP concentration (RAW 264.7 cells; RAW 264.7, different FIP concentrations) | IgG titer (OD450 nm) (Female Balb/c mice) | solubility in acidic aqueous solution (acidic aqueous solution with a pH≤6) | solubility in solvent phase (hot DMSO and DMF solutions)
1 | fluorescein-labeled amphiphilic imiquimod-grafted lauryl γ-polyglutamate [FIP] | a distinct fluorescence peak could still be seen | gradually increased | 2.1 | – | –
2 | CC(C)Cn1cnc2c(N)nc3ccccc3c21 [Vaccine R837, imiquimod] | – | – | 3.07 | can be dissolved | slightly soluble
